Test results: the kinase profiling compilation of Christmann-Franck et al. (2016)
Each block holds one compound with its values, some of them ahead of it.

Assays:
Test in all cases: KINOMEscan competition binding
Conditions in all cases: compound 10.0 µM
[1] = system: BMX (human), P51813 [V600E]
[2] = system: FGFR3 (human), P22607 [G697C]
[3] = system: KIT (human), P10721 [D816H]
[4] = system: LRRK2 (human), Q5S007 [G2019S]
[5] = system: MET (human), P08581 [M1250T]
[6] = system: PIK3CA (human), P42336 [E542K]
Chain of PIK3CA (human), P42336 [E542K] (P42336 whole entry E542K, looked up): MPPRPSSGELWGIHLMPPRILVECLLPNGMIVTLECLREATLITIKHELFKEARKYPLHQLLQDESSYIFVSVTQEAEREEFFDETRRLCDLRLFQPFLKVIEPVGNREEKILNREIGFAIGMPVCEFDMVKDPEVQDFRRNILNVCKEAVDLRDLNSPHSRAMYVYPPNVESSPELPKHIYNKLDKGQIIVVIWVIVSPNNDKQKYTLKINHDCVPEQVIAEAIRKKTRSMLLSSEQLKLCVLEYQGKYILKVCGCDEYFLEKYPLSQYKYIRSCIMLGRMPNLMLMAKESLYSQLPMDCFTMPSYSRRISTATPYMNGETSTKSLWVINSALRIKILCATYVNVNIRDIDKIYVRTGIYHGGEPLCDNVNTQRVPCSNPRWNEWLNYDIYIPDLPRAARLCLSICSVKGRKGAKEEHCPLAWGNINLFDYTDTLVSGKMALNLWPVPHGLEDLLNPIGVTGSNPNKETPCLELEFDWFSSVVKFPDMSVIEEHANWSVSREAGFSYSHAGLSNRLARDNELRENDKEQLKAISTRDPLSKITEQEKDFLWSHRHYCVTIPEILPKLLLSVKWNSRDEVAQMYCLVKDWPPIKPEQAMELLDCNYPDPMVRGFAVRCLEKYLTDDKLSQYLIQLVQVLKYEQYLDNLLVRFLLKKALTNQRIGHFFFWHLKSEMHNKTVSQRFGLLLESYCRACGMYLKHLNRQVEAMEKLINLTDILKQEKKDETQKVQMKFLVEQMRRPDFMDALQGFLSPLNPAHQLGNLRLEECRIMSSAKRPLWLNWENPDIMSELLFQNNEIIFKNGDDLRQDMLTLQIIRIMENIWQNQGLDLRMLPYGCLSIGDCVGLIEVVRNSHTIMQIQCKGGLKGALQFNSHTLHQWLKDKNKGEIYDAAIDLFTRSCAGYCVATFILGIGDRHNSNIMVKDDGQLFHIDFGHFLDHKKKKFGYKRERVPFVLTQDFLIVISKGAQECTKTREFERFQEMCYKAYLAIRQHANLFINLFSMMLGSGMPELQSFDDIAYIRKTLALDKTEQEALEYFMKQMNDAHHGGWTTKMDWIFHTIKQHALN

[7] = system: PIK3CA (human), P42336 [H1047L]
Chain of PIK3CA (human), P42336 [H1047L] (P42336 whole entry H1047L, looked up): as the sequence (P42336 whole entry E542K, looked up) above, with K542E, H1047L counted along it

[8] = system: PIK3CA (human), P42336 [M1043I]
Chain of PIK3CA (human), P42336 [M1043I] (P42336 whole entry M1043I, looked up): as the sequence (P42336 whole entry E542K, looked up) above, with K542E, M1043I counted along it

[9] = system: RET (human), P07949 [V804L]
Chain of RET (human), P07949 [V804L] (P07949 whole entry V804L, looked up): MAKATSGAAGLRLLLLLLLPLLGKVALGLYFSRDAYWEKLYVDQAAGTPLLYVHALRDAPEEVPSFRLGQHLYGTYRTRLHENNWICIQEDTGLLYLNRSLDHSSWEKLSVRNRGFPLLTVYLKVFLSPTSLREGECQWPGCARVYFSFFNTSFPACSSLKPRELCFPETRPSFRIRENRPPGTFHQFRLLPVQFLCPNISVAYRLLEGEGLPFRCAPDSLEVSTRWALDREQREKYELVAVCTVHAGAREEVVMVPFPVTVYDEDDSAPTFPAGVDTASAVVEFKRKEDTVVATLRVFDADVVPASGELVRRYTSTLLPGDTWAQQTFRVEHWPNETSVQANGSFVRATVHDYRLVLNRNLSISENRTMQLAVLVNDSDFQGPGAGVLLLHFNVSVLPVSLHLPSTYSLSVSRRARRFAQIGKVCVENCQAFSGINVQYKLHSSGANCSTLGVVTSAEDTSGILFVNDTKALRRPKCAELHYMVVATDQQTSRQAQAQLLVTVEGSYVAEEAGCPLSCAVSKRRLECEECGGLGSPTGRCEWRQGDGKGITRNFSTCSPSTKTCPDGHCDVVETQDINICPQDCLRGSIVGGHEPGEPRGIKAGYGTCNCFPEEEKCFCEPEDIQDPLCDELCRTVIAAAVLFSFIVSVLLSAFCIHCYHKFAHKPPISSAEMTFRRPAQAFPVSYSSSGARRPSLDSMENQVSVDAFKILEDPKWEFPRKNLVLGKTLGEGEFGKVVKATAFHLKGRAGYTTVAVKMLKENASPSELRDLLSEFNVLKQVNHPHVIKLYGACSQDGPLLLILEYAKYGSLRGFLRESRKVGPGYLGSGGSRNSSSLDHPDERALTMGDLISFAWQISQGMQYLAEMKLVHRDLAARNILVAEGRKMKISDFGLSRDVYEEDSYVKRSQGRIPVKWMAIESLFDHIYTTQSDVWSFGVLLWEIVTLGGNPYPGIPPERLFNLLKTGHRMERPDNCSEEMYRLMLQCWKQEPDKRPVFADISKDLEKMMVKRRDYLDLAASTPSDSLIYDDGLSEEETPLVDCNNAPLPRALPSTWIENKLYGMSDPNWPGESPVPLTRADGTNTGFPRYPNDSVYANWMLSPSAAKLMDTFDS

[10] = system: EGFR (human), P00533 [A750P; 747-749 del]
[11] = system: EGFR (human), P00533 [G719C]
[12] = system: EGFR (human), P00533 [L858R]
[13] = system: FLT3 (human), P36888 [D835Y]
[14] = system: KIT (human), P10721 [A829P]
Chain of KIT (human), P10721 [A829P] (P10721 whole entry A829P, looked up): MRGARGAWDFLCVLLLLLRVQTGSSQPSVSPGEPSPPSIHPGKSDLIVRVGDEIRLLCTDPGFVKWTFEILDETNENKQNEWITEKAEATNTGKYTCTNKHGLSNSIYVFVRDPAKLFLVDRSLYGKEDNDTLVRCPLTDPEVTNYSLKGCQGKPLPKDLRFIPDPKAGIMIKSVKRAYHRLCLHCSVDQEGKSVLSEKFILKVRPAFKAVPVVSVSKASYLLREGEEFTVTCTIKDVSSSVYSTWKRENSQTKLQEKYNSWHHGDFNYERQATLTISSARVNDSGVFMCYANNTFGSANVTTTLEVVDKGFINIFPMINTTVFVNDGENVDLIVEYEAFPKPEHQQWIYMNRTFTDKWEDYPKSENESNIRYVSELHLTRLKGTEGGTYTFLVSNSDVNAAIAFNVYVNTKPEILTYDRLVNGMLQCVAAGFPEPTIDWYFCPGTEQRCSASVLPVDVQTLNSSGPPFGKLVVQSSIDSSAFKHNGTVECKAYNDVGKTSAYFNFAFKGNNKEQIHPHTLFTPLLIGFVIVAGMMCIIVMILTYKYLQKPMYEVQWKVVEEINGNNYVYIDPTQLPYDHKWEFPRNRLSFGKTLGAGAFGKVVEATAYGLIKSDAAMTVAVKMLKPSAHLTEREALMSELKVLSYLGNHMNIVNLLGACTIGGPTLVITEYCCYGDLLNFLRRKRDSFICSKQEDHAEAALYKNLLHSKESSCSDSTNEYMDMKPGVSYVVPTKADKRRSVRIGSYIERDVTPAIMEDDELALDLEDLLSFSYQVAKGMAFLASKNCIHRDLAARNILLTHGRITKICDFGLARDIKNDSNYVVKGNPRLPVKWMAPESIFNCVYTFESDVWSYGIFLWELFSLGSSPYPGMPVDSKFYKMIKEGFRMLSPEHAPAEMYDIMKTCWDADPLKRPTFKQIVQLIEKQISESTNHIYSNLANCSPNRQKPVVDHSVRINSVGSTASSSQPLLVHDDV

Chain of KIT (human), P10721 [D816H] (P10721 whole entry D816H, looked up): as the sequence (P10721 whole entry A829P, looked up) above, with D816H, P829A counted along it
Chain of BMX (human), P51813 [V600E] (P51813 whole entry, looked up, stated change not applied): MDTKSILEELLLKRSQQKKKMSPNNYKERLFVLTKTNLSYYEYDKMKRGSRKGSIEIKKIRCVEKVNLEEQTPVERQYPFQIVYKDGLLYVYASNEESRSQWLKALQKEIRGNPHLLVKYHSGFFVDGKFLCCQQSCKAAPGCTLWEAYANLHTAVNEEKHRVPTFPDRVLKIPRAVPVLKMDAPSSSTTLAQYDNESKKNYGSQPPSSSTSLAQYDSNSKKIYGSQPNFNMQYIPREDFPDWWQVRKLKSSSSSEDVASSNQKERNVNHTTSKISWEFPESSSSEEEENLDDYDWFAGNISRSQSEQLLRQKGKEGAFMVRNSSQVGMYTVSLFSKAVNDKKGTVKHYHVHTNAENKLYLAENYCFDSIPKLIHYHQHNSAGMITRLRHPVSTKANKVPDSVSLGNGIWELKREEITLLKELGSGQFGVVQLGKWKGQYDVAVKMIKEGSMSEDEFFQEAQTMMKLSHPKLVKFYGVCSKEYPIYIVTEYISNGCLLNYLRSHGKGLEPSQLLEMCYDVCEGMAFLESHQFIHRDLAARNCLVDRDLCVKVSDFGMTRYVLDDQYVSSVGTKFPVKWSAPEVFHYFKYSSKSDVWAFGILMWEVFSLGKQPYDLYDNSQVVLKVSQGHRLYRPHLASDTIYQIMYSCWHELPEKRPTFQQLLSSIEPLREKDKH
Chain of FGFR3 (human), P22607 [G697C] (P22607 whole entry G697C, looked up): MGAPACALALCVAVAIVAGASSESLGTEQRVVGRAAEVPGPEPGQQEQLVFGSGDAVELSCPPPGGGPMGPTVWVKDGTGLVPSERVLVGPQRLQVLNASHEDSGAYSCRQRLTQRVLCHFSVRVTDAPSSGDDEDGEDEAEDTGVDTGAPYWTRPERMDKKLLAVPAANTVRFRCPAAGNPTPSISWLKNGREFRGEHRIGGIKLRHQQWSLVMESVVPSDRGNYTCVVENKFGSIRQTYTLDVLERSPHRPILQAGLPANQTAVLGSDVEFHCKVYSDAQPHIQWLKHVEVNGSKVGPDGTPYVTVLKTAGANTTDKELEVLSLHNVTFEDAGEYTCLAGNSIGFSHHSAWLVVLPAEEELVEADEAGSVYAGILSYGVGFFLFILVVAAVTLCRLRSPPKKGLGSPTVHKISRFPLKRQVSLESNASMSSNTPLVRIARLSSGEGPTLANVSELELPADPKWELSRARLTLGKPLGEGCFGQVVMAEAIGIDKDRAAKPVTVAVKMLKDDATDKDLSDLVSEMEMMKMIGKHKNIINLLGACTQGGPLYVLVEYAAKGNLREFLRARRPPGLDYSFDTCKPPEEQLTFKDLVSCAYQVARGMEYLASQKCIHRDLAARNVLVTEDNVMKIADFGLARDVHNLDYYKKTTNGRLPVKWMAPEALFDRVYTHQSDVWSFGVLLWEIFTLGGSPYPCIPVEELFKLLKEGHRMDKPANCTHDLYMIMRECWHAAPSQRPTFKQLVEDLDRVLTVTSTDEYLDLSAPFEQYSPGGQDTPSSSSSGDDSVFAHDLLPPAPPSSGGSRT

Compound: COc1cc2ncnc(-n3nc(-c4ccccn4)nc3N)c2cc1OC
- kinase still bound, per cent of control [1]: 23%
- kinase still bound, per cent of control [10]: 44%
- kinase still bound, per cent of control [11]: 24%
- kinase still bound, per cent of control [12]: 55%
- kinase still bound, per cent of control [2]: 100%
- kinase still bound, per cent of control [13]: 3.4%
- kinase still bound, per cent of control [14]: 33%
- kinase still bound, per cent of control [3]: 12%
- kinase still bound, per cent of control [4]: 41%
- kinase still bound, per cent of control [5]: 44%
- kinase still bound, per cent of control [6]: 48%
- kinase still bound, per cent of control [7]: 17%
- kinase still bound, per cent of control [8]: 36%
- kinase still bound, per cent of control [9]: 54%

Compound: NC(=O)Nc1cc(-c2cccc(F)c2)sc1C(=O)N[C@@H]1CCCNC1
- kinase still bound, per cent of control [1]: 89%
- kinase still bound, per cent of control [10]: 0.65%
- kinase still bound, per cent of control [11]: 0.05%
- kinase still bound, per cent of control [12]: 2.2%
- kinase still bound, per cent of control [2]: 22%
- kinase still bound, per cent of control [13]: 0.1%
- kinase still bound, per cent of control [4]: 4.2%
- kinase still bound, per cent of control [5]: 4.7%
- kinase still bound, per cent of control [6]: 100%
- kinase still bound, per cent of control [7]: 100%
- kinase still bound, per cent of control [8]: 100%
- kinase still bound, per cent of control [9]: 0%

Compound: O=C1Nc2ccc(I)cc2/C1=C/c1cc(Br)c(O)c(Br)c1
- kinase still bound, per cent of control [1]: 0.1%
- kinase still bound, per cent of control [10]: 36%
- kinase still bound, per cent of control [11]: 80%
- kinase still bound, per cent of control [12]: 32%
- kinase still bound, per cent of control [2]: 76%
- kinase still bound, per cent of control [13]: 13%
- kinase still bound, per cent of control [14]: 93%
- kinase still bound, per cent of control [3]: 99%
- kinase still bound, per cent of control [4]: 9%
- kinase still bound, per cent of control [5]: 80%
- kinase still bound, per cent of control [6]: 84%
- kinase still bound, per cent of control [7]: 97%
- kinase still bound, per cent of control [8]: 76%
- kinase still bound, per cent of control [9]: 100%

Compound: CCN(CC)CCCCNc1ncc2cc(-c3cc(OC)cc(OC)c3)c(NC(=O)NC(C)(C)C)nc2n1
- kinase still bound, per cent of control [1]: 100%
- kinase still bound, per cent of control [2]: 3.7%
- kinase still bound, per cent of control [13]: 100%

Compound: C[C@@H](Oc1cc(-c2cnn(C3CCNCC3)c2)cnc1N)c1c(Cl)ccc(F)c1Cl
- kinase still bound, per cent of control [2]: 27%
- kinase still bound, per cent of control [13]: 11%
- kinase still bound, per cent of control [14]: 35%
- kinase still bound, per cent of control [3]: 50%
- kinase still bound, per cent of control [4]: 57%
- kinase still bound, per cent of control [6]: 100%
- kinase still bound, per cent of control [7]: 48%

Compound: Cc1ccc2nc(NCCN)c3ncc(C)n3c2c1
- kinase still bound, per cent of control [1]: 60%
- kinase still bound, per cent of control [10]: 100%
- kinase still bound, per cent of control [2]: 100%
- kinase still bound, per cent of control [13]: 97%
- kinase still bound, per cent of control [3]: 100%
- kinase still bound, per cent of control [5]: 100%
- kinase still bound, per cent of control [6]: 100%
- kinase still bound, per cent of control [7]: 100%
- kinase still bound, per cent of control [8]: 100%
- kinase still bound, per cent of control [9]: 100%

Compound: Cc1cc([C@@H](C)Nc2ccccc2C(=O)O)c2nc(N3CCOCC3)cc(=O)n2c1
- kinase still bound, per cent of control [1]: 92%
- kinase still bound, per cent of control [10]: 100%
- kinase still bound, per cent of control [11]: 95%
- kinase still bound, per cent of control [12]: 100%
- kinase still bound, per cent of control [2]: 100%
- kinase still bound, per cent of control [13]: 54%
- kinase still bound, per cent of control [14]: 100%
- kinase still bound, per cent of control [3]: 88%
- kinase still bound, per cent of control [4]: 100%
- kinase still bound, per cent of control [5]: 87%
- kinase still bound, per cent of control [9]: 99%

Next, values leading:

- kinase still bound, per cent of control [1]: 80%
- kinase still bound, per cent of control [2]: 90%
- kinase still bound, per cent of control [3]: 100%
- kinase still bound, per cent of control [4]: 98%
- kinase still bound, per cent of control [5]: 100%
- kinase still bound, per cent of control [6]: 100%
- kinase still bound, per cent of control [7]: 100%
- kinase still bound, per cent of control [8]: 100%
- kinase still bound, per cent of control [9]: 100%
Compound: COCC(=O)NC/C=C/c1ccc2ncnc(Nc3ccc(Oc4ccc(C)nc4)c(C)c3)c2c1

- kinase still bound, per cent of control [1]: 95%
- kinase still bound, per cent of control [10]: 100%
- kinase still bound, per cent of control [11]: 71%
- kinase still bound, per cent of control [12]: 100%
- kinase still bound, per cent of control [2]: 89%
- kinase still bound, per cent of control [13]: 32%
- kinase still bound, per cent of control [14]: 64%
- kinase still bound, per cent of control [3]: 80%
- kinase still bound, per cent of control [4]: 81%
- kinase still bound, per cent of control [5]: 100%
- kinase still bound, per cent of control [7]: 0%
- kinase still bound, per cent of control [9]: 100%
Compound: Nc1ccc(-c2ccc3ncc4ccc(=O)n(-c5cccc(C(F)(F)F)c5)c4c3c2)cn1

- kinase still bound, per cent of control [1]: 100%
- kinase still bound, per cent of control [10]: 100%
- kinase still bound, per cent of control [11]: 91%
- kinase still bound, per cent of control [12]: 100%
- kinase still bound, per cent of control [2]: 100%
- kinase still bound, per cent of control [13]: 100%
- kinase still bound, per cent of control [14]: 81%
- kinase still bound, per cent of control [3]: 86%
- kinase still bound, per cent of control [4]: 97%
- kinase still bound, per cent of control [5]: 100%
- kinase still bound, per cent of control [6]: 100%
- kinase still bound, per cent of control [7]: 100%
- kinase still bound, per cent of control [8]: 100%
- kinase still bound, per cent of control [9]: 100%
Compound: COc1cc(N2CCN(C)CC2)ccc1Nc1nc(N)c(C(=O)c2c(Cl)cccc2Cl)s1

- kinase still bound, per cent of control [1]: 100%
- kinase still bound, per cent of control [11]: 86%
- kinase still bound, per cent of control [12]: 79%
- kinase still bound, per cent of control [2]: 88%
- kinase still bound, per cent of control [13]: 100%
- kinase still bound, per cent of control [3]: 91%
- kinase still bound, per cent of control [4]: 100%
- kinase still bound, per cent of control [5]: 92%
- kinase still bound, per cent of control [6]: 57%
- kinase still bound, per cent of control [7]: 45%
- kinase still bound, per cent of control [8]: 42%
- kinase still bound, per cent of control [9]: 93%
Compound: O=C(NOC[C@H](O)CO)c1ccc(F)c(F)c1Nc1ccc(I)cc1F

- kinase still bound, per cent of control [1]: 0.2%
- kinase still bound, per cent of control [10]: 74%
- kinase still bound, per cent of control [11]: 28%
- kinase still bound, per cent of control [2]: 100%
- kinase still bound, per cent of control [14]: 89%
- kinase still bound, per cent of control [3]: 98%
- kinase still bound, per cent of control [4]: 70%
- kinase still bound, per cent of control [5]: 25%
- kinase still bound, per cent of control [6]: 100%
- kinase still bound, per cent of control [7]: 95%
- kinase still bound, per cent of control [9]: 90%
Compound: CCCS(=O)(=O)Nc1ccc(F)c(C(=O)c2c[nH]c3ncc(-c4ccc(Cl)cc4)cc23)c1F

- kinase still bound, per cent of control [1]: 93%
- kinase still bound, per cent of control [2]: 83%
- kinase still bound, per cent of control [13]: 80%
- kinase still bound, per cent of control [14]: 87%
- kinase still bound, per cent of control [3]: 85%
- kinase still bound, per cent of control [4]: 94%
- kinase still bound, per cent of control [5]: 100%
- kinase still bound, per cent of control [6]: 100%
- kinase still bound, per cent of control [7]: 70%
- kinase still bound, per cent of control [8]: 100%
- kinase still bound, per cent of control [9]: 90%
Compound: N#Cc1c(NC(=O)c2cccc3ccccc23)sc2c1CCCC2

- kinase still bound, per cent of control [10]: 28%
- kinase still bound, per cent of control [11]: 77%
- kinase still bound, per cent of control [12]: 29%
- kinase still bound, per cent of control [2]: 12%
- kinase still bound, per cent of control [13]: 72%
- kinase still bound, per cent of control [14]: 100%
- kinase still bound, per cent of control [4]: 100%
- kinase still bound, per cent of control [5]: 58%
- kinase still bound, per cent of control [7]: 79%
- kinase still bound, per cent of control [9]: 88%
Compound: O=C(O)c1ccc(Nc2ncc3c(n2)-c2ccc(Cl)cc2C(c2c(F)cccc2F)=NC3)cc1

- kinase still bound, per cent of control [1]: 0.05%
- kinase still bound, per cent of control [2]: 39%
- kinase still bound, per cent of control [13]: 3.2%
- kinase still bound, per cent of control [14]: 59%
- kinase still bound, per cent of control [3]: 36%
- kinase still bound, per cent of control [5]: 83%
- kinase still bound, per cent of control [9]: 0.1%
Compound: CNC(=O)c1cc(Oc2ccc(NC(=O)Nc3ccc(Cl)c(C(F)(F)F)c3)cc2)ccn1
